Measurements: patent publication US10654868B2, “Dihydropyrazole azepine compound serving as Akt inhibitor” (HARBIN ZHENBAO PHARMACEUTICAL CO., LTD., priority 2016, dated 2020)

How the values were obtained:
[1] = molecular target: T1, Akt1 (Homo sapiens, UniProt P31749); test: Akt1 kinase inhibition, LANCE TR-FRET; format: biochemical
T1 construct: purchased life technology lot11629928C (lot number only, catalogue number not given)
Procedure: (§1) Study 1: The Inhibitory Effect of the Compounds on the Activity of Akt1, Akt2 and Akt3
Akt1 protein (life technology # lot11629928C)
(§2) In this experiment, a homogeneous time-resolved fluorescence […] energy transfer (LANCE TR-FRET®) method was used. In the assay plate, enzymes, biotinylated polypeptide substrates and compound to be tested were mixed, and ATP was added to initiate the reaction and the mixture was incubated. After that, EDTA was added to terminate the reaction while an Eu-labeled antibody was added to carry out the reaction and the reaction was then detected. The assay plate was analyzed by PE company's Envision, and the analysis mode was TR-FRET. The data were represented by fluorescence signals at 665 nm and 615 nm, respectively.
(§3) Compound formulation: compound to be tested and the reference compound were diluted with 100% DMSO, the initial concentration of the compound was 10 uM, and diluted by 10 times in a 3-fold gradient. Transfer the compound to the cell plate and duplicate each well.
(§4) Kinase assay: the enzyme and substrate were mixed with different concentrations of pre-diluted compounds. […] Leave at room temperature for 15 min and diplicate each concentration. ATP was added, and the final concentrations were 36 uM, 360 uM and 160 uM in Akt1, Akt2, and Akt3 kinase reactions, respectively, and the reaction was carried out for 90 min at room temperature (in which negative and positive controls were set). After the reaction was completed, the antibody was added and the mixture was detected, and the cells were incubated for 60 min at room temperature, and then collected by Evnvision. Data analysis and fitting according to *Lfit5 software.

[2] = molecular target: T2, Akt3 (Homo sapiens, UniProt Q9Y243); test: Akt3 kinase inhibition, LANCE TR-FRET; format: biochemical; conditions: Akt3 2 nM, ATP 160 uM, 90 min at room temperature
T2 construct: purchased life technology lot 1715050B (lot number only, catalogue number not given)
T2 sequence (Q9Y243 whole entry): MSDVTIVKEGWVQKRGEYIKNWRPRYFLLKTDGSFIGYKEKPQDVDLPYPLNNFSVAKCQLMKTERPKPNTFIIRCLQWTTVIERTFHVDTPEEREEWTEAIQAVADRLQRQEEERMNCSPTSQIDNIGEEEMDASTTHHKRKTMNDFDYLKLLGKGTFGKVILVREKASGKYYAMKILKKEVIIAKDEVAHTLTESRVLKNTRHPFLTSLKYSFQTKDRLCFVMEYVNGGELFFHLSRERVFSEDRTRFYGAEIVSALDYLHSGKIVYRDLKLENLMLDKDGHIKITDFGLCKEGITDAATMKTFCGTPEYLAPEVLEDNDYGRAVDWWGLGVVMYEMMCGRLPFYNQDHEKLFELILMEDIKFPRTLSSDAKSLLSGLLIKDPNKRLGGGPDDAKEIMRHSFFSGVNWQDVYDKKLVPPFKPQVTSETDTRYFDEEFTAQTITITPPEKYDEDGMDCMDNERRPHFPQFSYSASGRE
Procedure: as §1
Akt3 protein (life technology # lot 1715050B)
as §2, §3, §4

[3] = tested on: LNCaP cells; test: LNCaP cell activity, CellTiter-Glo live cell detection; format: cell-based; conditions: Homo sapiens, 72 h, 1000 cells per well, incubated 3 days, starting concentration 10 uM
Procedure: Study 2: inhibitory effects of compounds on LNCaP cell activity
The amount of ATP directly reflects the number and the state of the cells, and the number of live cells can be detected by quantitatively measuring ATP. The live cell assay kit contains luciferase and its substrate. Through the participation of ATP, luciferase can catalyze the substrate, emit a stable optical signal, and the amount of ATP in the cell was determined by detecting the intensity of the signal. Wherein, the optical signal is proportional to the amount of ATP in the cell, and ATP is positively correlated with the number of live cells, so that the cell proliferation can be detected. The assay board is analyzed by PE company's Envision.
LNCaP cell was separately seeded in a 384-well plate, each well contains 1000 cells. The cell plate was placed in a carbon dioxide incubator and incubated overnight.
A duplicated experiment was performed with 10 concentrations of compound in a 3-fold dilution with Bravo.
Compound was transferred to the cell plate with a starting concentration of 10 uM. The cell plate was incubated in a carbon dioxide incubator for 3 days.
The Promega CellTiter-Glo reagent was added to the cell plate and incubated for 10 min at room temperature to stabilize the optical signal. Read the data by a PerkinElmer Envision multi-label analyzer.

[4] = molecular target: T3, Akt2 (Homo sapiens, UniProt P31751); test: Akt2 kinase inhibition, LANCE TR-FRET; format: biochemical; conditions: Akt2 2 nM, ATP 360 uM, 90 min at room temperature
T3 construct: purchased life technology lot 28870GG (lot number only, catalogue number not given)
T3 sequence (P31751 whole entry): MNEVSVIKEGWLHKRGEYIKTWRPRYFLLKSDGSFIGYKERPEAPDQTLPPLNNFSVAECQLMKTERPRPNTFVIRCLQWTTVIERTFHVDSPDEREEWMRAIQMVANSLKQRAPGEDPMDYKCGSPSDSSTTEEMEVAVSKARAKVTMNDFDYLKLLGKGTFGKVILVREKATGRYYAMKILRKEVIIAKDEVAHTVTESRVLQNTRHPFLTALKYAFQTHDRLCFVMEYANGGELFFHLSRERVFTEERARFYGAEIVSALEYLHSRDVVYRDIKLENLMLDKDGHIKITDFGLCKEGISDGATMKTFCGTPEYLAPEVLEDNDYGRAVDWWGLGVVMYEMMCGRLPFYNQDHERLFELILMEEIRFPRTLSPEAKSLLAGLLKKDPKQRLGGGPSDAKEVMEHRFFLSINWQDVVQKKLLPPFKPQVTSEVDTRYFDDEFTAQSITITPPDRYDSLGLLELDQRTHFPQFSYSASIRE
Procedure: as §1
Akt2 protein (life technology # lot 28870GG)
as §2, §3, §4

T1 sequence (P31749 whole entry): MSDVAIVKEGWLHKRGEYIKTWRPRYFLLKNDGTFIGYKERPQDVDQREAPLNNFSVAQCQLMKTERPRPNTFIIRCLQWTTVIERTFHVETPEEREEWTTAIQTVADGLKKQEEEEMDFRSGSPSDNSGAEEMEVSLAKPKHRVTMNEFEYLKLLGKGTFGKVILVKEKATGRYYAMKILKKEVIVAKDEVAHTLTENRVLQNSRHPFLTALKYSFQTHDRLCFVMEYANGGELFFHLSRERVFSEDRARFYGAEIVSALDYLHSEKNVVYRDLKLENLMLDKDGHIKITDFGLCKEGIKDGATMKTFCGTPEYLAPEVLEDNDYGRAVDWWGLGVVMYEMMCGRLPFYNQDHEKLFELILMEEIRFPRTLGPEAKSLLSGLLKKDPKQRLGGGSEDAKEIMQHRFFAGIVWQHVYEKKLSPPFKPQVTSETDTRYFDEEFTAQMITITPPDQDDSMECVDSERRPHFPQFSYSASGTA

Row | SMILES | IC50 [1] [nM] | IC50 [2] [nM] | IC50 [3] [nM] | IC50 [4] [nM]
1 | NC[C@H](Cc1cccc(F)c1)NC(=O)c1cc2c(s1)CCCn1ncc(Cl)c1-2 [Embodiment 1] | 0.36 | 21 | 58 | 24
2 | NC[C@H](Cc1cccnc1)NC(=O)c1cc2c(s1)CCCn1ncc(Cl)c1-2 [Embodiment 2] | 6.64 | 294 | 666 | 266
3 | NC[C@H](Cc1ccncc1)NC(=O)c1cc2c(s1)CCCn1ncc(Cl)c1-2 [Embodiment 3] | 39 | 1130 | 2010 | 163
4 | NC[C@H](Cc1cccc(Cl)c1)NC(=O)c1cc2c(s1)CCCn1ncc(Cl)c1-2 [Embodiment 4] | 0.6 | 40 | 182 | 32
5 | NC[C@H](Cc1ccc(F)cc1F)NC(=O)c1cc2c(s1)CCCn1ncc(Cl)c1-2 [Embodiment 5] | 2.54 | 77 | 199 | 77
6 | NC[C@H](Cc1ccccc1F)NC(=O)c1cc2c(s1)CCCn1ncc(Cl)c1-2 [Embodiment 6] | 3.78 | 95 | 297 | 101
7 | NC[C@H](Cc1ccc(F)c(F)c1)NC(=O)c1cc2c(s1)CCCn1ncc(Cl)c1-2 [Embodiment 7] | 0.71 | 24 | 59 | 19
8 | NC[C@H](Cc1ccc(Cl)cc1)NC(=O)c1cc2c(s1)CCCn1ncc(Cl)c1-2 [Embodiment 8] | 3.62 | 69 | 534 | 107
9 | NC[C@H](Cc1ccc(Cl)c(Cl)c1)NC(=O)c1cc2c(s1)CCCn1ncc(Cl)c1-2 [Embodiment 9] | 1.39 | 44 | 236 | 25
10 | NC[C@H](Cc1ccccc1C(F)(F)F)NC(=O)c1cc2c(s1)CCCn1ncc(Cl)c1-2 [Embodiment 10] | 0.63 | 29 | 159 | 17
11 | NC[C@H](Cc1cccc(C(F)(F)F)c1)NC(=O)c1cc2c(s1)CCCn1ncc(Cl)c1-2 [Embodiment 11] | 2.28 | 80 | 287 | 66
12 | CN(C)C[C@H](Cc1cccc(F)c1)NC(=O)c1cc2c(s1)CCCn1ncc(Cl)c1-2 [Embodiment 12] | 116 | 867 | 4890 | 4830
13 | NC[C@@H](NC(=O)c1cc2c(s1)CCCn1ncc(Cl)c1-2)c1ccccc1 [Embodiment 13] | 11 | 189 | 514 | 188
14 | NC[C@H](Cc1cccc(F)c1)NC(=O)c1cc2c(s1)CCCn1ncc(Br)c1-2 [Embodiment 14] | 0.33 | 34 | 36 | 11
15 | NC[C@H](Cc1ccc(F)c(F)c1F)NC(=O)c1cc2c(s1)CCCn1ncc(Br)c1-2 [Embodiment 15] | 0.67 | 16 | 85 | 20
16 | NC[C@H](Cc1cccc(F)c1F)NC(=O)c1cc2c(s1)CCCn1ncc(Br)c1-2 [Embodiment 16] | 0.85 | 45 | 233 | 45
17 | NC[C@H](Cc1cc(F)ccc1F)NC(=O)c1cc2c(s1)CCCn1ncc(Br)c1-2 [Embodiment 17] | 0.68 | 41 | 230 | 38
18 | NC[C@H](Cc1ccc(F)c(F)c1)NC(=O)c1cc2c(s1)CCCn1ncc(Br)c1-2 [Embodiment 18] | 0.27 | 10 | 77 | 8

Row | SMILES | IC50 [1] [nM] | IC50 [2] [nM] | IC50 [3] [nM] | IC50 [4] [nM]
19 | NC[C@H](Cc1cc(F)cc(F)c1)NC(=O)c1cc2c(s1)CCCn1ncc(Br)c1-2 [Embodiment 19] | 0.03 | 8.7 | 23 | 8
20 | NC[C@H](Cc1ccccn1)NC(=O)c1cc2c(s1)CCCn1ncc(Br)c1-2 [Embodiment 20] | 11 | 374 | 487 | 428
21 | NC[C@H](Cc1ccc(F)c(F)c1)NC(=O)c1cc2c(o1)CCCn1ncc(Cl)c1-2 [Embodiment 21] | 13.3 | 98 | 615 | 312
22 | Cc1cnn2c1-c1cc(C(=O)N[C@H](CN)Cc3cccc(F)c3)sc1CCC2 [Embodiment 22] | 2.18 | 60 | 61 | 26
23 | NC[C@H](Cc1cccc(F)c1)NC(=O)c1cc2c(s1)CCCn1ncc(-c3ccccc3)c1-2 [Embodiment 23] | 8.84 | 52 | 1340 | 372
24 | NC[C@H](Cc1cccc(F)c1)NC(=O)c1cc2c(s1)CCCn1ncc(-c3cccnc3)c1-2 [Embodiment 24] | 67.4 | 398 | 3560 | 1860
25 | CCc1cnn2c1-c1cc(C(=O)N[C@H](CN)Cc3cccc(F)c3)sc1CCC2 [Embodiment 25] | 5.22 | 83 | 389 | 143
26 | NC[C@H](Cc1cccc(F)c1)NC(=O)c1cc2c(s1)CCCn1ncc(C(F)(F)F)c1-2 [Embodiment 27] | 14.7 | 119 | 971 | 304
27 | NC[C@H](Cc1cccc(F)c1)NC(=O)c1cc2c(s1)CCCn1ncc(F)c1-2 [Embodiment 28] | 33.3 | 286 | 1420 | 589
28 | NCC(CCc1ccccc1)NC(=O)c1cc2c(s1)CCCn1ncc(Cl)c1-2 (centres unmarked) [Embodiment 29] | 36 | 783 | 2620 | 1100
29 | COC1CCn2ncc(Cl)c2-c2cc(C(=O)N[C@H](CN)Cc3cccc(F)c3)sc21 (some centres unmarked) [Embodiment 30] | 12.4 | 485 | 654 | 281
30 | NC[C@H](Cc1cccc(F)c1)NC(=O)c1cc2c(s1)C(=O)CCn1ncc(Cl)c1-2 [Embodiment 31] | 124 | 819 | 5710 | 3130
31 | NC[C@H](Cc1cccc(F)c1)NC(=O)c1cc2c(s1)C(O)CCn1ncc(Cl)c1-2 (some centres unmarked) [Embodiment 32] | 117 | 814 | > 10000 | 2930
32 | NC[C@H](Cc1cccc(F)c1)NC(=O)c1cc2c(s1)C(F)(F)CCn1ncc(Cl)c1-2 [Embodiment 33] | 13 | 108 | 1750 | 490
33 | CNC[C@H](Cc1cccc(F)c1)NC(=O)c1cc2c(s1)CCCn1ncc(Cl)c1-2 [Embodiment 34] | 36 | 513 | 2360 | 983
34 | Cc1cnn2c1-c1cc(C(=O)N[C@H](CN)Cc3ccc(F)c(F)c3)sc1CCC2 [Embodiment 35] | 0.43 | 34 | 150 | 22
35 | NC[C@H](Cc1cccc(F)c1)NC(=O)c1cc2n(n1)CCCn1ncc(Cl)c1-2 [Embodiment 36] | 9.78 | 195 | 902 | 235
36 | NC[C@H](Cc1ccc(F)c(F)c1)NC(=O)c1cc2c(s1)OCCn1ncc(Br)c1-2 [Embodiment 37] | 1.73 | 29 |  | 35
